# Test results as given in the Deep4Chem optical property database.
# Assay: photoluminescence quantum yield (fraction); solvent given as SMILES
# [1] = in O=P(c1ccccc1)(c1ccccc1)c1ccccc1Oc1ccccc1P(=O)(c1ccccc1)c1ccccc1
smiles,measurement,setting,value
CCC1=C(C)C2=C(C)c3cc(I)c(I)n3[B-](F)(F)[N+]2=C1C,photoluminescence quantum yield,in C1CCCCC1,0.2
same,photoluminescence quantum yield,in CC(C)=O,0.13
same,photoluminescence quantum yield,in CCO,0.16
same,photoluminescence quantum yield,in CCOC(C)=O,0.15
same,photoluminescence quantum yield,in CO,0.13
same,photoluminescence quantum yield,in OCC(F)(F)F,0.11
COc1cc(-c2nc3sc4ccccc4c3s2)cc(OC)c1OC,photoluminescence quantum yield,in CS(C)=O,0.6
c1ccc(-c2cc3c(-c4ccccc4)c4cccc5c(-c6ccccc6)cc6c(-c7ccccc7)c7cccc2c7c3c6c54)cc1,photoluminescence quantum yield,in ClCCl,0.26
COc1ccc(-c2cc(-c3ccc(C)cc3)nc3c(C#N)c(N4CCCC4)nc(N)c23)cc1,photoluminescence quantum yield,in CC#N,0.06
same,photoluminescence quantum yield,in c1ccccc1,0.084
Cc1ccc(C2=C3C=CC=[N+]3[B-](F)(F)n3cccc32)cc1,photoluminescence quantum yield,in C1CCCCC1,0.036
same,photoluminescence quantum yield,in CC#N,0.018
same,photoluminescence quantum yield,in CCO,0.025
same,photoluminescence quantum yield,in CCOC(C)=O,0.024
same,photoluminescence quantum yield,in CO,0.018
same,photoluminescence quantum yield,in OCC(F)(F)F,0.031
CCN(CC)c1ccc2cc(-c3nc4cc(C(=O)Nc5cccc(OC)c5)ccc4o3)c(=O)oc2c1,photoluminescence quantum yield,in ClCCl,0.21
COc1ccc(-c2csc(-c3ccncc3)n2)cc1,photoluminescence quantum yield,in CC#N,0.002
same,photoluminescence quantum yield,in CCO,0.22
same,photoluminescence quantum yield,in CN(C)C=O,0.158
same,photoluminescence quantum yield,in CS(C)=O,0.163
same,photoluminescence quantum yield,in Cc1ccccc1,0.037
same,photoluminescence quantum yield,in ClCCl,0.089
COc1cc2c(cc1-c1ccc(C#N)cc1)Cc1c3c(c4c(c1-2)-c1cc(OC)c(-c2ccc(C#N)cc2)cc1C4)C(=O)N(CCC(C)C)C3=O,photoluminescence quantum yield,in C1CCOC1,0.51
Nc1cccc2cc3ccccc3cc12,photoluminescence quantum yield,in C1CCCCC1,0.8
COc1ccc(-c2cnc(/C=C/c3ccccc3)o2)cc1OC,photoluminescence quantum yield,in ClCCl,0.52
C(=C(c1ccccc1)c1ccccc1)c1ccc(-c2cc(-c3ccc(C=C(c4ccccc4)c4ccccc4)cc3)cc(-c3ccc(C=C(c4ccccc4)c4ccccc4)cc3)c2)cc1,photoluminescence quantum yield,in C1CCOC1,0.0045
F[B-]1(F)n2c(-c3ccccc3)cc(-c3cccs3)c2N=C2C(c3cccs3)=CC(c3ccccc3)=[N+]21,photoluminescence quantum yield,in ClCCl,0.1
COc1ccc(-c2cc3c(o2)=CC2=Cc4cc5oc(-c6ccc(OC)cc6)cc5n4[B-](F)(F)[N+]=32)cc1,photoluminescence quantum yield,in C1CCOC1,0.83
same,photoluminescence quantum yield,in CC#N,0.85
same,photoluminescence quantum yield,in CCO,0.77
same,photoluminescence quantum yield,in CO,0.77
same,photoluminescence quantum yield,in Cc1ccccc1,0.87
same,photoluminescence quantum yield,in ClC(Cl)Cl,0.86
c1ccc(-c2csc(-c3ccncc3)n2)cc1,photoluminescence quantum yield,in CC#N,0.558
same,photoluminescence quantum yield,in CCO,0.048
same,photoluminescence quantum yield,in CN(C)C=O,0.041
same,photoluminescence quantum yield,in CS(C)=O,0
same,photoluminescence quantum yield,in ClCCl,0.28
C(C#Cc1ccc2ccc3cccc4ccc1c2c34)#Cc1cccc2ccccc12,photoluminescence quantum yield,in C1CCCCC1,0.84
same,photoluminescence quantum yield,in CC#N,0.73
same,photoluminescence quantum yield,in CO,0.55
same,photoluminescence quantum yield,in ClCCl,0.64
Oc1ccc(C2=[N+]3C(=C(c4ccccc4)c4cccn4[B-]3(F)F)C=C2)cc1,photoluminescence quantum yield,in ClC(Cl)Cl,0.06
N#C/C(=C\c1ccc(-c2ccncc2)cc1)c1ccc(-c2ccncc2)cc1,photoluminescence quantum yield,in ClCCl,0.002
COC1=[N+]2C(=C(c3ccccc3)c3ccc(OC)n3[B-]2(F)F)C=C1,photoluminescence quantum yield,in CC#N,0.11
same,photoluminescence quantum yield,in CCCCCC,0.12
same,photoluminescence quantum yield,in CCOC(C)=O,0.11
same,photoluminescence quantum yield,in CO,0.14
same,photoluminescence quantum yield,in ClCCl,0.2
Cc1ccc2c(c1)c1cc(C)ccc1n2-c1c(-n2c3ccccc3c3ccccc32)cc(-c2nc(-c3ccccc3)nc(-c3ccccc3)n2)cc1-n1c2ccccc2c2ccccc21,photoluminescence quantum yield,[1],0.98
COC(=O)/C=C/C1=CC2=C(c3c(C)cc(C)cc3C)c3cccn3[B-](F)(F)[N+]2=C1,photoluminescence quantum yield,in ClCCl,0.34
Cc1cc(C#Cc2ccccc2)c2ccc3c(C#Cc4ccccc4)cc(C#Cc4ccccc4)c4ccc1c2c43,photoluminescence quantum yield,in CS(C)=O,0.72
same,photoluminescence quantum yield,in ClC(Cl)(Cl)Cl,0.56
CCC1=C(C)C2=Cc3c4ccccc4c4n3[B-](c3ccc5ccc6cccc7ccc3c5c67)(Oc3ccccc3-4)[N+]2=C1C (stereo not given),photoluminescence quantum yield,in CC#N,0.66
same,photoluminescence quantum yield,in CCCCCC,0.72
same,photoluminescence quantum yield,in Cc1ccccc1,0.66
same,photoluminescence quantum yield,in ClCCl,0.71
CCN1c2ccc(/C=N/Nc3ccccn3)cc2Sc2cc(-c3ccc(C#N)cc3)ccc21,photoluminescence quantum yield,in C1CCOC1,0.23
same,photoluminescence quantum yield,in CS(C)=O,0.23
same,photoluminescence quantum yield,in Cc1ccccc1,0.33
same,photoluminescence quantum yield,in ClCCl,0.36
O=P1(c2ccccc2)C(c2ccccc2)=Cc2ccccc21 (stereo not given),photoluminescence quantum yield,in C1CCOC1,0.3
same,photoluminescence quantum yield,in ClCCl,0.85
O=Cc1ccc(-c2ccc(-c3nc4ccccc4s3)c(O)c2)s1,photoluminescence quantum yield,in CCO,0.0424
same,photoluminescence quantum yield,in ClCCl,0.0634
same,photoluminescence quantum yield,in O,0.07
C(S/C=C/c1ccc(/C=C/SC=C2CCCCCCC2)cc1)=C1CCCCCCC1,photoluminescence quantum yield,in ClCCl,0.018
N#Cc1c(N2c3ccccc3C(c3ccccc3)(c3ccccc3)c3ccccc32)cccc1N1c2ccccc2C(c2ccccc2)(c2ccccc2)c2ccccc21,photoluminescence quantum yield,in Cc1ccccc1,0.67
Cc1ccc(CN(Cc2ccc(C)cc2)c2nc(C#N)c(N(Cc3ccc(C)cc3)Cc3ccc(C)cc3)nc2C#N)cc1,photoluminescence quantum yield,in ClC(Cl)Cl,0.69
CN(C)c1ccc(-c2cc(-c3ccccc3)nn2C)cc1,photoluminescence quantum yield,in ClCCl,0.06
c1ccc(-c2nc(-c3ccccc3)nc(-c3ccc(-n4c5ccccc5c5c6c(ccc54)C4(c5ccccc5-c5ccccc54)c4ccccc4-6)cc3)n2)cc1,photoluminescence quantum yield,[1],0.45
N#Cc1ccc(C#Cc2ncc(-c3ccccc3)o2)cc1,photoluminescence quantum yield,in ClCCl,0.28
CC(=O)c1c2c(c(C(C)=O)c3c1OC(CC(=O)O)O3)OCO2,photoluminescence quantum yield,in CC#N,0.43
C(=C\c1cccc2ccccc12)/c1ncc(-c2ccccc2)o1,photoluminescence quantum yield,in ClCCl,0.32
CCCCCCc1ccc(-n2c3c4cccc(OC)c4nc(-c4ccc(C)cc4)c3c3c2c2c(-c4ccc(C)cc4)nc4c(OC)cccc4c2n3-c2ccc(CCCCCC)cc2)cc1,photoluminescence quantum yield,in ClC(Cl)Cl,0.02
C#CCOc1ccc(/C=C/C2=[N+]3C(=C(c4ccc(N(C)CC)cc4)c4c(C)cc(C)n4[B-]3(F)F)C(C)=C2)cc1,photoluminescence quantum yield,in CO,0.84
COc1cc2cc(/C=C/c3ccc(/C=C/c4ccc(/C=C(\C#N)C(=O)O)cc4)cc3)c(=O)oc2cc1OC,photoluminescence quantum yield,in CC#N,0.24
Cc1cc(-c2cccc3ccccc23)cc(C)[o+]1,photoluminescence quantum yield,in ClCCl,0.22
FC(F)(F)c1ccc2oc3nc4oc5ccc(N(c6ccccc6)c6ccccc6)cc5c4cc3c2c1,photoluminescence quantum yield,in ClC(Cl)Cl,0.099
C=CCNS(=O)(=O)c1ccc2c(c1)C(=O)/C(=C1\Sc3ccc(S(=O)(=O)NCC=C)cc3C1=O)S2,photoluminescence quantum yield,in CN(C)C=O,0.197
same,photoluminescence quantum yield,in CS(C)=O,0.006
COC(=O)c1ccc(/C=C2\C=C(c3ccc(OC)c(OC)c3)OC2=O)cc1,photoluminescence quantum yield,in C1COCCO1,0.355
CCc1ccc(C2=[N+]3C(=Cc4c5ccc(OC)cc5c(-c5ccc(CC)s5)n4[B-]3(F)F)c3ccc(OC)cc32)s1,photoluminescence quantum yield,in ClCCl,0.2
c1ccc2c(c1)CCc1ccccc1N2,photoluminescence quantum yield,in CC#N,0.2
same,photoluminescence quantum yield,in CCCCCC,0.13
same,photoluminescence quantum yield,in CO,0.131
CCCCCCCCc1ccc(-c2c3cc(-c4cc(CCCCCCCC)c(-c5ccc(-c6sc(/C=C7\SC(SCC)=NC7=O)cc6CCCCCCCC)s5)s4)sc3c(-c3ccc(CCCCCCCC)s3)c3cc(-c4cc(CCCCCCCC)c(-c5ccc(-c6sc(/C=C7\SC(SCC)=NC7=O)cc6CCCCCCCC)s5)s4)sc23)s1,photoluminescence quantum yield,in C1CCOC1,0.078
same,photoluminescence quantum yield,in ClC(Cl)Cl,0.037
COCCC1=Cc2nc1ccc1[nH]c(cc1CCOC)c1nc(c(OC(C)=O)cc3[nH]c2cc3CCOC)C(CCOC)=C1,photoluminescence quantum yield,in Cc1ccccc1,0.27
F[B-]1(F)n2cccc2C(c2c3ccccc3c(-c3ccccc3)c3ccccc23)=C2C=CC=[N+]21,photoluminescence quantum yield,in CC#N,0.001
same,photoluminescence quantum yield,in CCO,0.002
same,photoluminescence quantum yield,in CN(C)C=O,0.001
same,photoluminescence quantum yield,in Cc1ccccc1,0.007
same,photoluminescence quantum yield,in ClCCl,0.002
CNc1cccc2c1-c1ccccc1C2=O,photoluminescence quantum yield,in C1CCCCC1,0.094
same,photoluminescence quantum yield,in CC#N,0.0051
same,photoluminescence quantum yield,in CCO,0.00014
same,photoluminescence quantum yield,in c1ccccc1,0.063
COc1ccccc1CC(=O)OCc1c(C)c(=O)n2c(=O)c(C)c(C)n12,photoluminescence quantum yield,in CCO,0.636
C(=C1c2ccccc2CCc2ccccc21)c1ccc(C=C2c3ccccc3CCc3ccccc32)cc1,photoluminescence quantum yield,in C1CCOC1,0.001
CCN(CC)c1ccc2cc(C#N)/c(=N\C(=O)c3ccc(F)cc3)oc2c1,photoluminescence quantum yield,in CCO,0.3
same,photoluminescence quantum yield,in ClCCl,0.83
c1ccc2c(c1)c1ccccc1n2-c1ccc(-c2ccc(-n3c4ccccc4c4ccccc43)nc2-n2c3ccccc3c3ccccc32)nn1,photoluminescence quantum yield,in Cc1ccccc1,0.35
Cc1cc2c3ccccc3sc2c2[nH]c3ccccc3c12,photoluminescence quantum yield,in ClCCl,0.058
CN(C)c1ccc(-c2cc[n+](C)cc2)s1,photoluminescence quantum yield,in CCO,0.003
COC(=O)c1nc(-c2ccc(OC)cc2)oc1C,photoluminescence quantum yield,in C1CCCCC1,0.55
same,photoluminescence quantum yield,in CC#N,0.38
same,photoluminescence quantum yield,in CCO,0.41
same,photoluminescence quantum yield,in CCOC(C)=O,0.31
CC(C)(C)c1ccc2c(c1)c1cc(C(C)(C)C)ccc1n2-c1ccc(C#Cc2ccc(C=O)cc2)cc1,photoluminescence quantum yield,in ClCCl,0.1
COc1ccc2n1[B-](F)(F)[N+]1=C(SC#N)C=CC1=C2c1ccccc1,photoluminescence quantum yield,in CC#N,0.05
same,photoluminescence quantum yield,in CCCCCC,0.08
same,photoluminescence quantum yield,in CCOC(C)=O,0.04
same,photoluminescence quantum yield,in CO,0.05
same,photoluminescence quantum yield,in ClCCl,0.07
c1ccc(C2CCN3COc4c5ccccc5c5c6c7c(c2c3c46)C(c2ccccc2)CCN7CO5)cc1 (stereo not given),photoluminescence quantum yield,in C1CCCCC1,0.715
same,photoluminescence quantum yield,in C1CCOC1,0.124
same,photoluminescence quantum yield,in C1COCCO1,0.183
same,photoluminescence quantum yield,in CC#N,0.025
same,photoluminescence quantum yield,in CC(C)=O,0.046
same,photoluminescence quantum yield,in CCOC(C)=O,0.108
same,photoluminescence quantum yield,in CCOCC,0.227
same,photoluminescence quantum yield,in CN(C)C=O,0.039
same,photoluminescence quantum yield,in CO,0.023
same,photoluminescence quantum yield,in CS(C)=O,0.026
same,photoluminescence quantum yield,in Cc1ccccc1,0.871
same,photoluminescence quantum yield,in ClC(Cl)Cl,0.053
same,photoluminescence quantum yield,in ClCCl,0.066
CCn1c2ccc(-c3cccs3)cc2c2cc(-c3cccs3)ccc21,photoluminescence quantum yield,in ClCCl,0.047
